One data set concerns the target T1, ALDH-2 (Mesocricetus auratus, UniProt P81178).
T1 construct: membrane and supernatant fractions of the lysate of a gradient purified hamster liver mitochondria preparation; from tissue; host or cells: hamster liver mitochondria, supernatant fraction of the lysate
T1 sequence (P81178 20-519): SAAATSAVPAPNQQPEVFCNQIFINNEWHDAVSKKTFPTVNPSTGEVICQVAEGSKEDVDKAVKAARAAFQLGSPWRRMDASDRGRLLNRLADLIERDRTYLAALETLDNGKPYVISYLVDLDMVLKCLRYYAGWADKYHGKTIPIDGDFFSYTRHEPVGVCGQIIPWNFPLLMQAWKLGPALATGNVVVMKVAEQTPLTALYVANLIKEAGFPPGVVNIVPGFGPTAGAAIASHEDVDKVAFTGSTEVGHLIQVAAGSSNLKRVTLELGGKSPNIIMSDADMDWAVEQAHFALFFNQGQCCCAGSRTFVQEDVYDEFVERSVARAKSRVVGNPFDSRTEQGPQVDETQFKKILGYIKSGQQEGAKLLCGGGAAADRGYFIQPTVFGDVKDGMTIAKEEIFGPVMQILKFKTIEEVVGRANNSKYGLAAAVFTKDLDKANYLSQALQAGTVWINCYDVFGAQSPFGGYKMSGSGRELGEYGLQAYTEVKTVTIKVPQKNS
Kind of data set: ALDH-2 activity assay (supernatant of hamster liver mitochondria lysate). It counts as biochemical. The conditions noted are these: for IC50: read-out: ALDH-2 inhibition IC50. As to the method:
(§1) Several of the synthesized compounds were tested for MAO and ALDH-2 suppression activity. The membrane and supernatant fractions of the lysate of a gradient purified hamster liver mitochondria preparation were used as sources of MAO and ALDH-2, respectively. ALDH-2 and MAO activity assays were performed according to established procedures (Rooke et al. (2000) J. Med. Chem. 43:4169).

For data set [1] the following is noted: taken from Fujita et al. (1964); cited from earlier work.
The subject of another data set is MAO. The data set is described as follows: MAO activity assay (membrane fraction of hamster liver mitochondria lysate). It counts as biochemical. The following applies: for IC50: read-out: MAO inhibition IC50. The procedure: as §1
Data set [2] relates to 5-HT metabolism in brain slices. Kind of data set: 5-HT metabolism in hamster brain slices. In kind it is cell-based. The source says: (§2) The effects of daidzin on monoamine metabolism were studied in hamster and rat liver and brain using tissue slices using 5-HT as the substrate. The effects of ethanol drinking on 5-HT metabolism in hamster liver and brain were examined. Freshly removed tissues were cut into small pieces (about 1 mm cubes) with a tissue-slicer, suspended in ice-cold phosphate buffered saline (PBS) (0.1 g/ml), and forced through a mesh 40 stainless steel screen mounted on a Millipore Swinnex Filter Holder. The minced tissues were allowed to sediment on ice before PBS was removed using a Pasteur pipette. The tissue slices were washed 5 more times each with 10 volumes of ice-cold PBS. After the final wash, tissues were suspended in 1 volume of PBS and dispensed using a micro-pipette with tips of i.d.=2 mm. 5-HT metabolism catalyzed by the tissue slices was assayed in a 1 ml assay medium containing PBS, 1 μM 5-HT, 100:1 tissue slices, and specified concentrations of daidzin or ethanol. Reactions were initiated by the addition of tissues and allowed to proceed for 30 min at 37° C. in a shaking water bath. Reactions were terminated by addition of 0.1 ml ice-cold 1 M HClO4, and 10 mM EDTA. […] Contents of 5-HT, 5-HIAL, 5-HTOL and 5-HIAA in the supernatants were analyzed by HPLC as described before (Rooke et al. (2000) J. Med. Chem. 43:4169).

Data set [3] has the same test system. Kind of data set: 5-HT metabolism in rat brain slices. It counts as cell-based.
Source text: as §2

The subject of a further data set is golden hamsters. Kind of data set: Ethanol drinking experiments, two-bottle choice. It counts as in vivo. The conditions noted are these: 0.07 mmol/day/hamster for 5 consecutive days. The procedure:
Effects of the newly synthesized analogs on hamster ethanol intake were determined according to the method described below. Animals were male adult golden hamsters (outbred, Lakeview Lak: LVG[SYR]), purchased from Charles River Laboratories, Wilmington, Mass. 01887 or Harlan Sprague Dawley, Inc., Indianapolis, Ind. 46229. Upon arrival, hamsters were housed in a room maintained at 23° C., 35-45% humidity, with a 12/12 hr light/dark cycle (light on 0600-1800 hr), ad libitum access to Purina Chow (5001) and a 15% v/v ethanol solution. After a week, each hamster was transferred to an individual stainless steel cage (26×18×17.5 cm). Two 50 ml drinking bottles, one containing water and the other a 15% ethanol solution, were provided continuously. The bottles were placed in holders equipped with tilted platforms which direct spillage to tubes placed outside of the cages. The positions of the two drinking bottles on each cage were altered daily to prevent development of positional preference. Fluid intake was measured at 0900 hr each day. Hamsters that drank significant (>8 ml/day) and consistent (daily variance <±20%) amounts of ethanol solution were selected for testing. To establish baseline ethanol and water intake, 1 ml sterile saline was administered daily to each hamster between 1500-1600 hr for 6 days (saline control period, Day 1 to Day 6). A daily dose of 0.07 mmol of test compound was then administered for 5 consecutive days (treatment period, Day 7 to Day 11). After the last dose, ethanol and water intake were monitored for another 6 days (post treatment period, Day 12 to Day 17). […] At an equivalent dose, daidzin suppressed ethanol intake by about 55% (Table 1).

The nature of data set [4]: Tissue distribution study, liver of hamsters on compound-Chow. In kind it is in vivo, hamster. The following applies: hamster, in vivo.
Data set [5] deals with Syrian golden hamsters (Meso cricetus auratus). Kind of data set: Oral potency: compound mixed in chow, two-bottle free-choice ethanol intake. It counts as in vivo. The conditions noted are these: oral. As to the method:
The oral potency of hexzein (7-O-ω-carboxypentyldaidzein) in reducing ethanol intake in Syrian golden hamsters (Meso cricetus auratus) was examined under a two-bottle free-choice protocol. Hexzein was mixed with Purina rodent meal (5755M) at 0 mg: 1 g (control), 2 mg: 1 g, 4 mg: 1 g, and 5 mg: 1 g ratios and the mixtures were pressed into 1×1×0.5 inch pellets. Food pellets, ethanol solution and water were provided continuously throughout the study and their intake were measured every day at 5 pm. Hexzein given in this manner did reduce ethanol intake. Ethanol intake in hamsters on 2 mg/g, 4 mg/g, and 5 mg/g hexzein-Chow were reduced by 18.3±3.8%, 47.8±7.4% and 56.5±5.4%, respectively.

In general, IC50 refers to the midpoint of a concentration-inhibition curve. In general, melting point refers to the temperature, or range, at which the solid turns liquid.

Several values for one entry are separate records, joined by “and”; a condition that tells them apart may be missing. Equal entries are not always repeated.

`CC(=O)Oc1ccc2c(=O)c(-c3ccccc3)coc2c1` [Analog 10]: the IC50 on ALDH-2 lay in the range of 0.14 to 8 µM.
On to `CCOC(=O)c1oc2cc(O)ccc2c(=O)c1-c1ccccc1` [Analog 20, 2-Ethoxycarbonyl-7-Hydroxyisoflavone], for which the melting point fell in the range of 213 to 214 °C.
On to `COc1ccc2c(=O)c(-c3ccc(O)cc3)coc2c1` [Analog 2, 7-Methoxy-4′-Hydroxyisoflavone], for which, in data set [1], the “π (hydrophobic constant of the 4′-substituent)” value is −0.67.
In the case of `O=c1c(-c2ccc(F)cc2)coc2cc(O)ccc12` [Analog 23], the IC50 in the data set on MAO came out at 1.5 µM.
Regarding `CCOC(=O)c1oc2cc(O)ccc2c(=O)c1-c1ccccc1` [Analog 20], the “ALDH-2 inhibition (in words)” value on ALDH-2 was “no effect on ALDH-2 activity”.
The compound `O=C(O)c1oc2cc(O)ccc2c(=O)c1-c1ccccc1` [Analog 21, 2-Carboxy-7-Hydroxyisoflavone] registered a melting point of 257 to 258 °C.
As to `CCO` [Ethanol, ethanol], the “Effect on 5-HT metabolism (in words)” value in [2] and in [3] was “did not effect 5-HT metabolism” throughout.
With `O=c1c(-c2ccc(O)cc2)coc2cc(O)ccc12` [Analog 40], the “EtOH intake suppression, %” value in the data set with golden hamsters was 22 ± 5%. Moreover, in the data set on MAO, the IC50 amounted to 12 µM.
Regarding `COc1ccc2c(=O)c(-c3ccccc3)coc2c1` [Analog 3, 7-Methoxyisoflavone], in data set [1], the “π (hydrophobic constant of the 4′-substituent)” value is on record as 0.00.
As to `CCOC(=O)CCCCCOc1ccc2c(=O)c(-c3ccc(F)cc3)coc2c1` [Analog 24, 7-O-Ethoxycarbonylpentyl-4′-Fluoroisoflavone], the “π (hydrophobic constant of the 4′-substituent)” value in [1] is 0.14.
Consider “7-Ethoxycarbonylpentyl-4′-Aminoisoflavone [Analog 33]”, for which the “π (hydrophobic constant of the 4′-substituent)” value in data set [1] is −1.23.
For `O=C1c2ccccc2C(=O)N1CCCCOc1ccc2c(=O)c(-c3ccccc3)coc2c1` [Analog 14], the “EtOH intake suppression, %” value with golden hamsters turned out to be 37 ± 3%. In addition, the IC50 on ALDH-2 was 0.14 to 8 µM. In addition, in the data set on MAO, the “MAO inhibition (in words)” value was “none of the 4′-H series (analogs 3, 5, 7, 9, 12 and 14) had any effect on MAO”.
As to `O=C(O)CCCCCOc1ccc2c(=O)c(-c3ccc(O)cc3)coc2c1` [Hexzein, 7-O-ω-carboxypentyldaidzein], the “EtOH intake suppression, %” value in the data set on golden hamsters is 69 ± 12%. Moreover, in data set [4], the “Concentration found in the liver (in words)” value is recorded as “pharmacologically relevant concentrations”. The figures for the “Ethanol intake reduced by” value in data set [5] (2 mg/g hexzein-Chow), in [5] (4 mg/g hexzein-Chow) and in data set [5] (5 mg/g hexzein-Chow) were 18.3±3.8%, 47.8±7.4% and 56.5±5.4%, respectively.
For `Cc1ccc(-c2coc3cc(O)ccc3c2=O)cc1` [Analog 29], the half-maximal inhibitory concentration (IC50) in the data set on MAO was 9 µM.
On the same count and under the same terms, the figure for `O=c1c(-c2ccc(Br)cc2)coc2cc(O)ccc12` [Analog 25] is 1 µM.
With `O=c1c(-c2ccc(Br)cc2)coc2cc(O)ccc12` [Analog 25, 7-Hydroxy-4′-Bromoisoflavone], the melting point fell in the range of 266 to 268 °C.
On the same count and under the same terms, as for `CCc1ccc2c(=O)c(-c3ccccc3)coc2c1` [Analog 35, 7-Ethylisoflavone], the figure is 103 to 104 °C.
With `O=c1c(-c2ccc(O)cc2)coc2cc(OCn3nnc4ccccc43)ccc12` [Analog 18], at ALDH-2, the IC50 lay in the range of 0.14 to 8 µM.
As to `CCOC(=O)CCCCCOc1ccc2c(=O)c(-c3ccc(C)cc3)coc2c1` [Analog 30, 7-O-Ethoxycarbonylpentyl-4′-Methylisoflavone], in [1], the “π (hydrophobic constant of the 4′-substituent)” value was 0.56.
Consider `CCOC(=O)CCCCCOc1ccc2c(=O)c(-c3ccc([N+](=O)[O-])cc3)coc2c1` [Analog 28, 7-O-Ethoxycarbonylpentyl-4′-Nitroisoflavone], for which, in data set [1], the “π (hydrophobic constant of the 4′-substituent)” value is on record as −0.28.
In the case of `Nc1ccc(-c2coc3cc(O)ccc3c2=O)cc1` [Analog 32], the IC50 with MAO is 12 µM and > 9 µM.
For `COc1ccc2c(=O)c(-c3ccccc3)coc2c1OC` [Analog 34], at ALDH-2, the “ALDH-2 inhibition (in words)” value is “completely abolished ALDH-2 inhibitory activities”. The “Potency for MAO inhibition compared with counterpart analogs (in words)” value in the data set on MAO is listed as “substantially decreased potencies for MAO inhibition”.
Regarding `O=c1c(-c2ccccc2)coc2cc(O)ccc12` [Analog 1], the IC50 in the data set on MAO is 8.6 µM.
`CCOC(=O)CCCCCOc1ccc2c(=O)c(-c3ccccc3)coc2c1` [Analog 7, 7-O-Ethoxycarbonylpentylisoflavone]: the “π (hydrophobic constant of the 4′-substituent)” value in [1] is 0.00.
For `COc1ccc2c(=O)c(-c3ccccc3)coc2c1OC` [Analog 34, 7,8-Dimethoxyisoflavone], the melting point fell in the range of 143 to 144 °C.
As to “4′-Bromoisoflavone 7-ω-Ethoxycarbonylpentyl Ether [Analog 26]”, in data set [1], the “π (hydrophobic constant of the 4′-substituent)” value was 0.86.

The values are drawn from US7368434B2, “Compounds useful for the inhibition of ALDH” (The Endowment for Research in Human Biology, Inc., priority 2002, dated 2008).
